Data on 1 compound can be found in patent US20180177749A1, “USE OF CYP EXPRESSION TO DIRECT THERAPEUTIC INTERVENTION IN CANCER” (REGENTS OF THE UNIVERSITY OF MINNESOTA, priority 2016, published 2018).

One data set has as its target T1, CYP3A4 vs CYP2C8 (Homo sapiens, UniProt P08684).
T1 construct: host or cells: insect cells (microsomes)
Put plainly: Recombinant microsomal CYP-mediated EET biosynthesis (CYP3A4 Supersomes). Format: biochemical. Conditions: human, CYP3A4 or CYP2C8 Supersomes (recombinant microsomes), pH 7.4, probe arachidonic acid (AA), 5 μM; CYP3A4 vs CYP2C8; read-out: selectivity for CYP3A4 epoxygenase activity. From the text:
Samples were submitted to liquid chromatography-electrospray ionization/multiple reaction monitoring/mass spectrometry (LC-ESI/MRM/MS) analysis in a Thermo Electron Quantum Discovery Max triple quadrupole mass spectrometer (Thermo Finnigan, San Jose, Calif.) coupled with an Agilent 1100 HPLC (Santa Clara, Calif.), using argon as the collision gas. […] A standard curve was obtained by linear regression of the peak area ratio of authentic EET regioisomers against internal standards. The amount of EETs in samples was calculated according to the standard curve. The (±)-5,6-EET regioisomer was not measured because it undergoes rapid internal degradation.
CYP3A4 or 2C8 Supersomes™ (BD Biosciences) were incubated at 37° C. for 30 min in the presence of AA (5 μM) in […] Tris-HCl, pH 7.4, containing 1 mm EDTA and 1 mm NADPH. Reactions were terminated by adding methylene chloride (0.5 ml). Samples were centrifuged at 3,000 rpm for 10 min and 150 μl of the organic phases were evaporated under nitrogen. Samples were reconstituted in 20 μl of MeOH containing [^13C20]EET internal standards and submitted to a Thermo Electron Quantum Discovery Max triple quadrupole mass spectrometer (Thermo Finnigan, San Jose, Calif.) coupled with an Agilent 1100 HPLC (Santa Clara, Calif.) for analysis. […] Concentrations of EETs generated by CYP Supersomes™ were calculated by linear regression against standard curve generated with EET standards.

Another data set addresses T2, CYP4A11 (Homo sapiens, UniProt Q02928).
T2 sequence (Q02928 5-519): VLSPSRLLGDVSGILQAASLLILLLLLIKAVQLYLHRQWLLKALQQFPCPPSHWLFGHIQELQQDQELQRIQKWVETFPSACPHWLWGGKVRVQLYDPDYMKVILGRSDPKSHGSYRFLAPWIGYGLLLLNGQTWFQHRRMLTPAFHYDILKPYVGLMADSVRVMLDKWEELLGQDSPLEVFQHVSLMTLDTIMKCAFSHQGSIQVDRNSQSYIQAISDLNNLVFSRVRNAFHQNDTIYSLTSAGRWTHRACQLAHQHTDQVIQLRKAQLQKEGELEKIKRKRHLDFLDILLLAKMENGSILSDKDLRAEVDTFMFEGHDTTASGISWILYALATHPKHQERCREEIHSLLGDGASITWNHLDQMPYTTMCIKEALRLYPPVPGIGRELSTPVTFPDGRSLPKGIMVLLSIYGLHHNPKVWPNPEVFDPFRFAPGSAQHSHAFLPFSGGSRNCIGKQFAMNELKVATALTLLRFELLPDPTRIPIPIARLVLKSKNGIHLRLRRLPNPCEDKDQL
Put plainly: CYP4A11-mediated EET biosynthesis. It counts as biochemical. Conditions: 25 to 100 uM.

The next data set relates to T47D. The experiment in a line: MTT cell proliferation assay, T47D. It counts as cell-based, human. Here is the method:
(§1) The human breast cancer cell lines MCF-7, T47D, and MDA-MB-231 described above were grown in Minimal Essential Medium (MCF-7), RPMI 1640 with insulin (0.2 U/mL) and 1 mM Na pyruvate (T47D) or DMEM containing 10% fetal bovine serum (FBS) (MDA-MB-231), which was defined as complete medium (CM). Cells were grown at 37° C. in a 5% CO2 incubator. […] MTT was then added (5 mg/ml), and after 2 h of incubation, the plates were centrifuged. The supernatant was removed; DMSO was added, and the absorbance was read at 540 nm with a BioTek 96-well plate reader.

Another data set has as its system MDA-MB-231. The experiment in a line: MTT cell proliferation assay, MDA-MB-231. Format: cell-based, human. The protocol: as §1
A general note: Formazan colour is commonly taken as a measure of viable cells.

For data set [1], the system named is MCF-7 cells. Put plainly: Measurement of OCR and ECAR (extracellular flux), MCF-7. It counts as cell-based, human. Here is the method:
Cells were maintained in growth medium consisting of 10% FBS at 37° C. with 5% CO2 and seeded at 100,000 cells per well in XF24-well cell culture microplates (Seahorse Bioscience, North Billirica, Mass.). Concentrated stocks of HBB were prepared in DMSO. HBB was diluted to 10× working concentration in XF assay medium (a non-buffered medium including 2 mM L-glutamine but no sodium bicarbonate (buffering agent), glucose, or sodium pyruvate). Assays were performed in the XF Extracellular Flux Analyzer (Seahorse Bioscience that measures uptake and excretion of metabolic end products in real time). Oxygen consumption rate (OCR) and extracellular acidification rate (ECAR) were measured using an XF Assay Kit. OCR is reported in pmoles/minute and ECAR in mpH/minute. Before analysis, the cells were switched from culture medium to XF assay medium. After baseline measurements, 75 μl of HBB prepared in assay medium was injected into each well to reach final working concentrations. After addition of HBB, OCR and ECAR were measured at 18-minute intervals. […] There were 6 replicates for the studies of the 3-18 and 4-14 cell lines.

The subject of data set [2] is MCF-7 cells. The experiment in a line: Cellular EET levels by LC-ESI/MS/MS. Conditions: metformin 5 mM, 6 hours. Format: cell-based, human. Here is the method:
Samples were submitted to liquid chromatography-electrospray ionization/multiple reaction monitoring/mass spectrometry (LC-ESI/MRM/MS) analysis in a Thermo Electron Quantum Discovery Max triple quadrupole mass spectrometer (Thermo Finnigan, San Jose, Calif.) coupled with an Agilent 1100 HPLC (Santa Clara, Calif.), using argon as the collision gas. Negative ion monitoring was performed at the following diagnostic product ions: 319 m/z→155 m/z for 8,9-EET; 319 m/z→179 m/z for 11,12-EET; 319 m/z→219 m/z for 14,15-EET; 339 m/z→163 m/z for 8,9-[13C20]EET; 339 m/z→233 m/z for 11,12-[13C20]EET; and 339 m/z→259 m/z for 14,15-[^13C20]EET. Base-line resolution of EET regioisomers was achieved on a Phenomenex Luna C18 (2) reverse phase capillary column (250×0.5 mm, 5-μm particles) using the following mobile phase combinations: isocratic 5% B for 5 min, gradient 5-70% B for 5 min, hold at 70% for 30 min and then 95% for 10 min; A: 0.01% acetic acid in water, B: 0.01% acetic acid in acetonitrile; […] flow rate. A standard curve was obtained by linear regression of the peak area ratio of authentic EET regioisomers against internal standards. The amount of EETs in samples was calculated according to the standard curve. The (±)-5,6-EET regioisomer was not measured because it undergoes rapid internal degradation. […]

The mark [3] stands for this setting: t-AUCB 2.5, 5 μM, metformin 2.5, 5 mM, HBB 20, 40 μM, rotenone 1 μM.

The term IC50 denotes the concentration that gives 50% inhibition.

T1 sequence (P08684 whole entry): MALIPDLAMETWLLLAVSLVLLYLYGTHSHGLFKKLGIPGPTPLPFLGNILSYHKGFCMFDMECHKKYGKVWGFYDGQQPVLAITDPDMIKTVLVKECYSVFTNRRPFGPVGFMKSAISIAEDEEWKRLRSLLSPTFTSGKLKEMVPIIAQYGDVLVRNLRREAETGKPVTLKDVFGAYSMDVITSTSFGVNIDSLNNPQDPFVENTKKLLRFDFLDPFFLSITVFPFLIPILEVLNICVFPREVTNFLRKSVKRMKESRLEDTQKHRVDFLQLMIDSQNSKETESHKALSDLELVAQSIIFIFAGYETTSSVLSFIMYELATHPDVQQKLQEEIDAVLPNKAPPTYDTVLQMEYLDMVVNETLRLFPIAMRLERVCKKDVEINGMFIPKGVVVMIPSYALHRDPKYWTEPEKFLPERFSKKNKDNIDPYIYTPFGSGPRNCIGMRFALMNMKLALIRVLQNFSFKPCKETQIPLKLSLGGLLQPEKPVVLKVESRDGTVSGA

In the case of `CCCCCCNC(=N)NC(=N)NCc1ccccc1` [HBB, N1-hexyl-N5-benzyl-biguanide], the selectivity ratio at 30 min at CYP3A4 vs CYP2C8 was 5 to 7. For the same compound, on CYP4A11, the “inhibition of EET production by CYP4A11” value was “only weakly”. Moreover, the “growth inhibition abrogated by concurrent (±)-14,15-EET” value in the data set with T47D ((±)-14,15-EET 1 μM, 24 hours) is given as “abrogated most of the inhibition”; with MDA-MB-231 (MDA-MB-231, (±)-14,15-EET 1 μM, 24 hours), “no dependence on (±)-14,15-EET”. The half-maximal inhibitory concentration (IC50) turned out to be 25.1 µM with T47D (Homo sapiens, ER+[PR+]) and 20.5 µM in the data set on MDA-MB-231 (Homo sapiens, MDA-MB-231, Triple negative). For the same compound, the “potency as inhibitor of OCR relative to metformin” value with MCF-7 cells [1] is “more than 250 fold”. For the same compound, the “extracellular acidification rate (ECAR)” value with MCF-7 cells [1] (setting [3]) is “significant inhibition of ECAR without recovery”. For the same compound, the “oxygen consumption rate (OCR)” value in the data set with MCF-7 cells [1] (setting [3]) is reported as “dose-dependent reduction of OCR”. Besides, the “cellular EET levels” value in the data set on MCF-7 cells [2] was “doesn't lower total EET levels”.
